Laboratory results from patent US6737383B1, “Herbicidal oxadiazolidines” (priority 1999, dated 2004).

Experiments:
velvetleaf [1] = test: Test A velvetleaf; assay type: in vivo, Abutilon theophrasti; conditions: 0 to 10 scale where 0 is no effect and 10 is complete control
Procedure, shortened: (§1)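 Visual injury score, 0 (no effect) to 10 (complete control), vs untreated controls at ~11 d in greenhouse. Pre: soil drench on sandy loam. Post: spray to runoff, 1–2 leaf stage.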

morningglory [2] = test: Test A morningglory; assay type: in vivo, Ipomoea spp.; conditions: 0 to 10 scale where 0 is no effect and 10 is complete control
Method: Seeds of barnyardgrass (Echinochloa crus-galli), crabgrass (Digitaria spp.), morningglory (Ipomoea spp.), and velvetleaf (Abutilon theophrasti) were planted into a sandy loam soil and treated preemergence by soil drench with test chemicals formulated in a non-phytotoxic solvent mixture which includes a surfactant At the same time, these crop and weed species were also treated postemergence sprayed to runoff, with test chemicals formulated in the same manner.
Plants ranged in height from two to eighteen cm and were in the one to two leaf stage for the postemergence treatment. Treated plants and untreated controls were maintained in a greenhouse for approximately eleven days, after which all treated plants were compared to untreated controls and visually evaluated for injury. Plant response ratings, summarized in Table A, are based on a 0 to 10 scale where 0 is no effect and 10 is complete control.

crabgrass [3] = test: Test A crabgrass; assay type: in vivo, Digitaria spp.; conditions: 0 to 10 scale where 0 is no effect and 10 is complete control
Procedure, shortened: as §1

barnyardgrass = test: Test A barnyardgrass; assay type: in vivo, Echinochloa crus-galli; conditions: 0 to 10 scale where 0 is no effect and 10 is complete control
Procedure, shortened: as §1

giant foxtail = test: Test B pre/postemergence giant foxtail; assay type: in vivo, Setaria faberii; conditions: Preemergence
Procedure, shortened: (§2)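 Response is a visual 0-to-10 score relative to untreated plants, where 0 means no effect and 10 means complete control, taken twelve to sixteen days after application. Treatments went onto soil at planting and onto foliage of 1- to 4-leaf plants, using a surfactant-containing non-phytotoxic solvent.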

soybean = test: Test B pre/postemergence soybean; assay type: in vivo, Glycine max; conditions: Preemergence
Procedure, shortened: as §2

morningglory [4] = test: Test B pre/postemergence morningglory; assay type: in vivo, Ipomoea hederacea; conditions: Preemergence
Procedure, shortened: as §2

wild oat = test: Test B pre/postemergence wild oat; assay type: in vivo, Avena fatua; conditions: Preemergence
Procedure, shortened: as §2

bedstraw = test: Test B pre/postemergence bedstraw; assay type: in vivo, Galium aparine; conditions: Preemergence
Procedure, shortened: as §2

crabgrass [5] = test: Test B pre/postemergence crabgrass; assay type: in vivo, Digitaria sanguinalis; conditions: Preemergence
Procedure, shortened: as §2

corn = test: Test B pre/postemergence corn; assay type: in vivo, Zea mays; conditions: Preemergence
Procedure, shortened: as §2

velvetleaf [6] = test: Test B pre/postemergence velvetleaf; assay type: in vivo, Abutilon theophrasti; conditions: Preemergence
Procedure, shortened: as §2

bamyardgrass = test: Test B flood test barnyardgrass; assay type: in vivo, Echinochloa crus-galli
Procedure, shortened: (§3)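 Plants were grown to the 2-leaf stage before treatment with test chemical, then held in a greenhouse for twelve to sixteen days. Injury was visually rated against untreated controls on a 0–10 scale, where 0 is no effect and 10 is complete control.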

cocklebur = test: Test B pre/postemergence cocklebur; assay type: in vivo, Xanthium strumarium; conditions: Preemergence
Procedure, shortened: as §2

purple nutsedge = test: Test B pre/postemergence purple nutsedge; assay type: in vivo, Cyperus rotundus; conditions: Preemergence
Procedure, shortened: as §2

rape = test: Test B pre/postemergence rape; assay type: in vivo, Brassica napus; conditions: Preemergence
Procedure, shortened: as §2

wheat = test: Test B pre/postemergence wheat; assay type: in vivo, Triticum aestivum; conditions: Preemergence
Procedure, shortened: as §2

rice = test: Test B flood test rice; assay type: in vivo, Oryza sativa
Procedure, shortened: as §3

duck salad = test: Test B flood test duck salad; assay type: in vivo, Heteranthera limosa
Procedure, shortened: as §3

smallflower flatsedge = test: Test B flood test smallflower flatsedge; assay type: in vivo, Cyperus difformis
Procedure, shortened: as §3

surinam grass = test: Test B pre/postemergence surinam grass; assay type: in vivo, Brachiaria decumbens; conditions: Preemergence
Procedure, shortened: as §2

blackgrass = test: Test B pre/postemergence blackgrass; assay type: in vivo, Alopecurus myosuroides; conditions: Preemergence
Procedure, shortened: as §2

sugar beet = test: Test B pre/postemergence sugar beet; assay type: in vivo, Beta vulgaris; conditions: Preemergence
Procedure, shortened: as §2

pigweed = test: Test B pre/postemergence pigweed; assay type: in vivo, Amaranthus retroflexus; conditions: Preemergence
Procedure, shortened: as §2

[7] = Rate 62 g/ha, scale of 0 to 10 where 0 is no effect and 10 is complete control
[8] = Rate 125 g/ha, scale of 0 to 10 where 0 is no effect and 10 is complete control
[9] = Rate 250 g/ha, scale 0 (no effect) to 10 (complete control)
[10] = Pre-emergence, Rate 62 g/ha, scale 0 to 10, 0 is no effect, 10 is complete control
[11] = Rate 125 g/ha, Pre-emergence section (flood test species), scale 0 to 10, 0 no effect, 10 complete control
[12] = Rate 250 g/ha, Pre-emergence (flood test species), scale 0 to 10, 0 is no effect, 10 is complete control
[13] = Rate 500 g/ha, Pre-emergence section of Table B, 0 to 10 scale (0 no effect, 10 complete control)
[14] = Rate 500 g/ha, scale of 0 to 10 where 0 is no effect and 10 is complete control

With `CC(C)N(C(=O)n1oc(=O)[nH]c1=O)c1ccc(Cl)cc1` [Compound 377] the “Plant response rating, Velvetleaf” value (velvetleaf [1]; Postemergence, Rate 1000 g/ha) was 0, the “Plant response rating, Velvetleaf” value (velvetleaf [1]; Pre-emergence, Rate 2000 g/ha) was 0 and the “Plant response rating, Morningglory” value (morningglory [2]; Postemergence, Rate 1000 g/ha) was 0. The “Plant response rating, Morningglory” value (morningglory [2]; Pre-emergence, Rate 2000 g/ha) was 0, the “Plant response rating, Crabgrass” value (crabgrass [3]; Postemergence, Rate 1000 g/ha) was 0 and the “Plant response rating, Crabgrass” value (crabgrass [3]; Pre-emergence, Rate 2000 g/ha) was 0. For the same compound, the “Plant response rating, Barnyardgrass” value (barnyardgrass; Postemergence, Rate 1000 g/ha) was 0 and the “Plant response rating, Barnyardgrass” value (barnyardgrass; Pre-emergence, Rate 2000 g/ha) was 0.

In the case of `CC(C)N(C(=O)n1oc(=O)n(CC2=NOCC2)c1=O)c1ccccc1` [Compound 706], the “Giant foxtail plant response rating” value (giant foxtail; [7]) was 6, the “Plant response rating, Giant foxtail” value (giant foxtail; [8]) was 6 and the “Giant foxtail plant response rating” value (giant foxtail; [9]) was 7. The “Soybean plant response rating” value (soybean; [7]) was 0, the “Plant response rating, Soybean” value (soybean; [8]) was 0 and the “Soybean plant response rating” value (soybean; [9]) was 0. The “Morningglory plant response rating” value (morningglory [4]; [7]) was 1, the “Plant response rating, Morningglory” value (morningglory [4]; [8]) was 1 and the “Morningglory plant response rating” value (morningglory [4]; [9]) was 1. The “Wild oats plant response rating” value (wild oat; [7]) was 4, the “Plant response rating, Wild oats” value (wild oat; [8]) was 7 and the “Wild oats plant response rating” value (wild oat; [9]) was 8. The “Bedstraw plant response rating” value (bedstraw; [7]) was 0, the “Plant response rating, Bedstraw” value (bedstraw; [8]) was 0 and the “Bedstraw plant response rating” value (bedstraw; [9]) was 0. For the same compound, the “Crabgrass plant response rating” value (crabgrass [5]; [7]) was 5, the “Plant response rating, Crabgrass” value (crabgrass [5]; [8]) was 5 and the “Crabgrass plant response rating” value (crabgrass [5]; [9]) was 8. The “Corn plant response rating” value (corn; [7]) was 0, the “Plant response rating, Corn” value (corn; [8]) was 0 and the “Corn plant response rating” value (corn; [9]) was 0. For the same compound, the “Velvetleaf plant response rating” value (velvetleaf [6]; [7]) was 0, the “Plant response rating, Velvetleaf” value (velvetleaf [6]; [8]) was 1 and the “Velvetleaf plant response rating” value (velvetleaf [6]; [9]) was 5. For the same compound, the “Barnyardgrass plant response rating” value (bamyardgrass; [10]) was 0, the “Barnyardgrass plant response rating” value (bamyardgrass; [11]) was 0 and the “Barnyardgrass plant response rating” value (bamyardgrass; [12]) was 0. For the same compound, the “Barnyardgrass plant response rating” value (bamyardgrass; [13]) was 0, the “Cocklebur plant response rating” value (cocklebur; [7]) was 0 and the “Plant response rating, Cocklebur” value (cocklebur; [8]) was 0. For the same compound, the “Cocklebur plant response rating” value (cocklebur; [9]) was 0, the “Plant response rating, Cocklebur” value (cocklebur; [14]) was 0 and the “Nutsedge plant response rating” value (purple nutsedge; [7]) was 0. The “Nutsedge plant response rating” value (purple nutsedge; [9]) was 0, the “Rape plant response rating” value (rape; [7]) was 0 and the “Plant response rating, Rape” value (rape; [8]) was 0. The “Rape plant response rating” value (rape; [9]) was 3, the “Wheat plant response rating” value (wheat; [7]) was 0 and the “Plant response rating, Wheat” value (wheat; [8]) was 4. For the same compound, the “Wheat plant response rating” value (wheat; [9]) was 5, the “Rice plant response rating” value (rice; [10]) was 0 and the “Rice plant response rating” value (rice; [11]) was 0. For the same compound, the “Rice plant response rating” value (rice; [12]) was 0, the “Rice plant response rating” value (rice; [13]) was 0 and the “Ducksalad plant response rating” value (duck salad; [10]) was 0. For the same compound, the “Ducksalad plant response rating” value (duck salad; [11]) was 0, the “Ducksalad plant response rating” value (duck salad; [12]) was 0 and the “Ducksalad plant response rating” value (duck salad; [13]) was 0. For the same compound, the “S. Flatsedge plant response rating” value (smallflower flatsedge; [10]) was 0, the “S. Flatsedge plant response rating” value (smallflower flatsedge; [11]) was 0 and the “S. Flatsedge plant response rating” value (smallflower flatsedge; [12]) was 0. The “S. Flatsedge plant response rating” value (smallflower flatsedge; [13]) was 0, the “B. signalgrass plant response rating” value (surinam grass; [7]) was 2 and the “Plant response rating, B. signalgrass” value (surinam grass; [8]) was 8. The “B. signalgrass plant response rating” value (surinam grass; [9]) was 8, the “Plant response rating, B. signalgrass” value (surinam grass; [14]) was 10 and the “Blackgrass plant response rating” value (blackgrass; [7]) was 8. The “Plant response rating, Blackgrass” value (blackgrass; [8]) was 8, the “Blackgrass plant response rating” value (blackgrass; [9]) was 10 and the “Plant response rating, Blackgrass” value (blackgrass; [14]) was 10. The “Sugarbeets plant response rating” value (sugar beet; [7]) was 0, the “Plant response rating, Sugarbeets” value (sugar beet; [8]) was 4 and the “Sugarbeets plant response rating” value (sugar beet; [9]) was 4. The “Redroot pigweed plant response rating” value (pigweed; [7]) was 8, the “Plant response rating, Redroot pigweed” value (pigweed; [8]) was 8 and the “Redroot pigweed plant response rating” value (pigweed; [9]) was 10.
